# Experimental data from PMC7978378, “Discovery of novel dual adenosine A1/A2A receptor antagonists using deep learning, pharmacophore modeling and molecular docking” (PLoS Computational Biology, 2021).
# Assays:
# [1] = parameters: method as in PMID 20973483; settings: further studies; cited from earlier work
# animal models of PD = system: animal models of PD; parameters: method as in PMID 20973483; settings: oral administration; cited from earlier work
# A1 receptor = settings: cited from earlier work
# A2A receptor = settings: cited from earlier work
# A1AR [2] = target: A1AR; parameters: method as in ChEMBL25 [53]; settings: S1 Table training set; ref ChEMBL25 [53]; read-out: Ki (nM) A1; cited from earlier work
# A2AAR [3] = target: A2AAR; parameters: method as in ChEMBL25 [53]; settings: S1 Table training set; ref ChEMBL25 [53]; read-out: Ki (nM) A2A; cited from earlier work
# A1AR [4] = target: T1, A1AR (Homo sapiens, UniProt P30542); assay: cAMP functional assay, CHO-A1 cells; format: cell-based; parameters: host or cells: CHO-A1 cells; settings: antagonism of NECA effect on cAMP, 5.08 × 10^−3 to 100 μM, read-out: cAMP assays (pIC50) A1 (converted)
# T1 sequence (P30542 1-326): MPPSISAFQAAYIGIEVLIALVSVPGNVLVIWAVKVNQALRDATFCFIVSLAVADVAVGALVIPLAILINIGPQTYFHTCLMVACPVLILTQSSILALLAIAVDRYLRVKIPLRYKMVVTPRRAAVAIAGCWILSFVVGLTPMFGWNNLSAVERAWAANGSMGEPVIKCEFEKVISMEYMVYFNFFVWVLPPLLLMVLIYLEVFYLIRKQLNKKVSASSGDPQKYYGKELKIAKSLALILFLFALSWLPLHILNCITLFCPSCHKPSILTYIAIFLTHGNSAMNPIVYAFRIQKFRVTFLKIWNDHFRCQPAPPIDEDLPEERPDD
# A2AAR [5] = target: T2, A2AAR (Homo sapiens, UniProt P29274); assay: Radioligand binding assay ([3H]ZM241385); settings: [3H]ZM241385 0.5 nM, 90 min at 27°C, Cheng-Prusoff; read-out: Binding affinities (pKi) A2A (converted)
# A1AR [6] = target: T1, A1AR; assay: biochemical
# A2AAR [7] = target: T2, A2AAR; assay: cAMP functional assay, HEK293-A2A cells; format: cell-based; parameters: host or cells: HEK293-A2A cells; settings: antagonism of NECA effect on cAMP, 5.08 × 10^−3 to 100 μM, read-out: cAMP assays (pIC50) A2A (converted)
# A1/A2A ARs [8] = assay: Radioligand binding assays, summarised over both receptors; parameters: species or system human; settings: range over A1AR and A2AAR radioligand binding assays
# A1/A2A ARs [9] = assay: cAMP functional assay, summarised over both receptors; settings: range over A1AR and A2AAR cAMP assays
# rodents = settings: forced swim test and tail suspension test in rodents; cited from earlier work
# T2 sequence (P29274 whole entry): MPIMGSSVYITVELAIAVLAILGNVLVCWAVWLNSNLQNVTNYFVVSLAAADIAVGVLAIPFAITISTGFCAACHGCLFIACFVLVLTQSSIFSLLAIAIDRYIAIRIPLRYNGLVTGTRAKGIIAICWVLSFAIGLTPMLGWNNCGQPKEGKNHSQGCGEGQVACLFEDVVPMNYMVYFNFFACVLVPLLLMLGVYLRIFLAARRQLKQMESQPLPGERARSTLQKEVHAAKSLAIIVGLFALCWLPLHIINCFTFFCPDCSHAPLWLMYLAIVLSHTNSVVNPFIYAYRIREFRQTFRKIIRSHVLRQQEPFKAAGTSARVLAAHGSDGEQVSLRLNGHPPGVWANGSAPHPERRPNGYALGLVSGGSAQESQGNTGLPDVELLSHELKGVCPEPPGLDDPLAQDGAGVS
SMILES,IC50 (A1AR [4]) [nM],Ki (A1AR [2]) [nM],Ki (A2AAR [3]) [nM],other results
"Nc1nc(-c2ccccc2)c2c(n1)-c1cc(CN3CCCC3)ccc1C2=O [2-amino-4-phenyl-8-(pyrrolidin-1-ylmethyl)-5H-indeno[1,2-d]pyrimidin-5-one]",,,,genotoxicity [1]: genotoxic; activity in animal models of PD (animal models of PD): excellent activity
Cc1ccc(-c2cc(-c3cccc(C(=O)N4CCCCC4)c3)nc(N)n2)o1 [4-(5-methylfuran-2-yl)-6-[3-(piperidine-1-carbonyl)phenyl]pyrimidin-2-amine],,,,Ki (A1 receptor): 9.54 nM; Ki (A2A receptor): 6.34 nM
N#Cc1c(N)nc(SCc2ncc[nH]2)c(C#N)c1-c1ccc(O)cc1 [CHEMBL122622],,2.6,28,
COc1ccc(NC(=O)Nc2nc3ccc(Cl)cc3c3nc(-c4ccco4)nn23)cc1 [CHEMBL144979],,7.6,9.4,
CCCCCc1nc(N)c2nc(-n3nccn3)n(C)c2n1 [CHEMBL196258],,26.2,,
Nc1nc(C#C[C@@H](O)c2ccccc2)nc2c1ncn2[C@@H]1O[C@H](CO)[C@@H](O)[C@H]1O [CHEMBL262363],,0.67,1.8,
OC[C@H]1O[C@@H](n2cnc3c(NC4CCCC4)nc(Cl)nc32)[C@H](O)[C@@H]1O [CHEMBL284969],,,17,
CC(=O)Nc1cc(-n2cccn2)nc(-c2ccco2)n1 [CHEMBL401321],,9.45,0.6,
Cc1ccc(-c2nc(N)nc3c2nnn3Cc2ccccc2F)o1 [CHEMBL461857],,19,2.1,
CC(=O)Nc1cc(-c2cccc(N3CCCC3)n2)nc(-n2nc(C)cc2C)n1 [CHEMBL485765],,7.2,0.26,
O=C(NC1CC1)[C@H]1S[C@@H](n2cnc3c(NCc4cccc(I)c4)ncnc32)[C@H](O)[C@@H]1O [CHEMBL596014],,,15.2,
Nc1nc(-c2ccccc2)c2c(n1)-c1cc(N3CCOCC3)ccc1C2=O [CHEMBL1095822],,32.4,2.9,
CCn1c(/N=C/c2ccc(F)cc2)c(C#N)sc1=S [CHEMBL2419148],,,11,
CN(C)CCOc1ccc(-c2nc3c([nH]2)c(=O)n(C)c(=O)n3C)cc1 [CHEMBL3121720],,1.82,0.4,
CCn1c(=O)c2c(nc(/C=C/c3ccc(OC)c(OC)c3)n2C)n(CC)c1=O [KW-6002],,,,antidepressant activity (rodents): antidepressant activity

# More lines, main results first:
IC50 (A1AR [4]) [nM],SMILES,Ki (A1AR [2]) [nM],Ki (A2AAR [3]) [nM],other results
> 100000,CCCCNC(=O)CCn1nc(-c2ccccc2)c2ccccc2c1=O [Compound C1],,,
> 100000,O=C(COc1ccccc1)Nc1c(C(=O)Nc2cccc(F)c2)oc2ccccc12 [Compound C2],,,
> 100000,O=C(CCCn1c2ccccc2c2cn[nH]c(=O)c21)NCc1cccs1 [Compound C3],,,
3090,O=C(c1ccco1)n1nc(-c2ccco2)nc1NCc1ccccc1 [Compound C4],,,Ki (A2AAR [5]): 19500 nM; Ki (A1AR [6]): 2090 nM; IC50 (A2AAR [7]): > 100000 nM
1910,Cc1ccccc1-c1nc(N)n(C(=O)Cc2ccccc2)n1 [Compound C7],,,Ki (A2AAR [5]): 5750 nM; Ki (A1AR [6]): 1050 nM; IC50 (A2AAR [7]): > 100000 nM
191,Nc1nc(-c2ccccc2Cl)nn1C(=O)c1cccc(Cl)c1 [Compound C9],,,Ki (A2AAR [5]): 69.2 nM; pKi for A1/A2A ARs (A1/A2A ARs [8]): 7.16–7.49; Ki (A1AR [6]): 32.4 nM; IC50 (A2AAR [7]): 490 nM; pIC50 towards A1/A2A ARs (A1/A2A ARs [9]): 6.31–6.78
347,CCCNc1cc(C)nc2c(C)c(-c3ccc(C)cc3)nn12 [Compound C10],,,Ki (A2AAR [5]): 8320 nM; Ki (A1AR [6]): 170 nM; IC50 (A2AAR [7]): 10000 nM
> 100000,Cn1c(=O)c2c(-c3cccc(Cl)c3)c(Nc3ccccc3)oc2n(C)c1=O [Compound C11],,,
> 100000,O=C(Cc1csc(NC(=O)c2ccc3c(c2)OCO3)n1)NCCCc1ccccc1 [Compound C13],,,
> 100000,Cc1cccc(NC(=O)Cc2csc(NC(=O)c3ccc4c(c3)OCO4)n2)c1 [Compound C14],,,
4470,CC(=O)c1cccc(NC(=O)Nc2cc3c(cc2Oc2ccccc2)n(C)c(=O)n3C)c1 [Compound C15],,,Ki (A2AAR [5]): > 100000 nM; Ki (A1AR [6]): 2880 nM; IC50 (A2AAR [7]): 7940 nM; pIC50 towards A1/A2A ARs (A1/A2A ARs [9]): 5.10–5.35
> 100000,CCCn1ccc2c(OCC(=O)Nc3ccc(OCC)cc3)cccc2c1=O [Compound C16],,,
631,CCn1cnc2c(-c3ccccc3)cn(CC(=O)Nc3cccc(F)c3)c2c1=O [Compound C17],,,Ki (A2AAR [5]): > 100000 nM; Ki (A1AR [6]): 525 nM; IC50 (A2AAR [7]): 63100 nM
> 100000,O=C(Cn1c(=O)n(-c2ccccc2)c2ncccc21)NCc1cccc(F)c1 [Compound C18],,,
52500,Cc1ccc(-c2c(C(=O)NCc3ccncc3)nc3ccccn23)cc1 [Compound C19],,,Ki (A2AAR [5]): 11700 nM; Ki (A1AR [6]): 10700 nM; IC50 (A2AAR [7]): > 100000 nM
